Details: buffer
Experimental: Typically, such hydrolysis evaluations are carried out at pH 7.5 in phosphate buffer at room temperature and are measured by observing the UV absorption of the maleimide ring.
The half-life of a polymer maleimide can be determined by measuring the concentration of the maleimide-terminated polymer over time using HPLC or by observing the UV absorption of the maleimide ring.
Using HPLC analysis, the rate of hydrolytic degradation of the maleimide ring of several exemplary maleimide-terminated mPEG polymers (average molecular weight 5000 Da) was explored.
The following linkages between the maleimide and the PEG polymer segment were evaluated: amidoethylene (L1-AMDE), amidopentamethylene (L1-AMPE), amidocyclohexylmethyl (L1-MCH), oxybutyl (L3-TEME), oxyhexyl (L3-HEXA), oxyethyl (L3-ET), and oxypropyl (L3-TME).
Hydrolysis studies were conducted on several exemplary stabilized PEG-maleimides as described above in Example 7.

Row | HALF-LIFE, IN HOURS [h] | Half-life [h] | Substance
1 | 20.6 |  | 1-(N-maleimidomethyl)-4-(methoxypoly(ethylene glycol)propionamidomethyl)cyclohexane
2 | 64.6 |  | 1-N-maleimidomethyl-3-(methoxypoly(ethylene glycol)propionamidomethyl)cyclohexane
3 | 11.5 | 11.5 | mPEG (5K DA)-propylmaleimide [mPEG-TME-MAL]
